{"source": "patent EP0082667A1", "about": "“Pharmaceutical compositions” (BEECHAM GROUP PLC, priority 1981, dated 1983)", "key": {"[1]": {"tested_on": "KOS strain of Herpes simplex type 1 virus in Vero cell monolayers", "assay": "Plaque inhibition assay of sera from dosed mice (biological assay of antiviral activity in serum)", "assay_type": "cell-based", "settings": "inferred from comparison of serum bioassay with HPLC levels of BVDU and metabolite", "method": "(§1) A single 100 mg/kg dose of BVDU, alone or in combination with 100 mg/kg or 200 mg/kg of probenecid, was administered as a suspension in carboxymethyl cellulose'to groups of 3 starved female Balb/c mice. Blood was collected at 30, 75 (or 85) and 120 minutes after dosing and the serum separated and stored at -20°C.\n(§2) Heat inactivated sera from single mice were titrated in plaque inhibition assays using the KOS strain of Herpes simplex type 1 virus in Vero cell monolayers. Antiviral activity is calculated by extrapolation from a standard inhibition dose response curve for BVDU and is quoted as the equivalent concentration of BVDU (in pg/mL) giving the same activity in cell culture.\n(§3) Mice dosed with BVDU and serum assayed at 30 and 85 minutes atter drug administration."}, "[2]": {"assay": "Plaque inhibition assay of sera from dosed mice (biological assay of antiviral activity in serum)", "assay_type": "cell-based, Herpes simplex type 1 virus", "settings": "Experiment 1, single 100 mg/kg dose of BVDU, mouse serum, read-out: Antiviral activity in serum (BVDU equiv (µg/mL) ± Standard Deviation)", "method": "as §1, §2, §3"}, "[3]": {"assay": "HPLC assay of BVDU, BVDU metabolite and probenecid in mouse serum", "assay_type": "in vivo, female Balb/c mice", "settings": "for concentration at 1.25 h: Experiment 2, 75 mins after dosing; for concentration at 2 h: Experiment 2, 120 mins after dosing", "method": "as §1\nInstrument: Waters H.P.L.C. Column: RCM 100 C18 Reverse Phase Radical Compression Column Solvents: Solvent (A) 0.05M Ammonium Acetate at pH4.5 Solvent (B) 80% Methanol, 10% Water, 10%(A) Conditions: 50% (B) Detector wavelength: 250 mp Solvent Flow: 1 and 3 mL/min.\nMouse serum samples (90 pL each) were treated with 16% aqueous trichloroacetic acid solution (90 µL) to deposit all proteins and the samples spun down using a micro centrifuge. The supernatant portions were assayed by injection (20 µL) into a reverse phase HPLC column). […] Under these conditions, the BVDU metabolite had retention time of 10.8 min and BVDU 11.6 min. The amounts of BVDU and Probenecid were calculated by comparison with an injected known amount of.each drug. The amounts of BVDU metabolite were calculated by assuming the same detector response as BVDU. All calculations were then extrapolated to give the amount of each component present in each serum sample in pg/mL.\nas §3\nMice dosed with BVDU or combinations of BVDU and Probenecid and the serum assayed by HPLC at 30, 75 and 120 minutes after drug administration."}, "[4]": {"assay": "Detection of BVDU and metabolite in urine of the dosed animals", "assay_type": "in vivo, mice"}, "[5]": {"tested_on": "herpes simplex virus type 1 (strain SC-16)", "assay": "Mouse ear herpesvirus model (virus replication and ear inflammation)", "assay_type": "in vivo, female Balb/c mice", "settings": "for Virus titre (log10 p.f.u./ear) / Difference in ear thickness between uninfected and infected ears (mm x 10^-2): oral 3 x daily day 0 to day 4, BVDU 100mg/kg/dose or BVDU/Probenecid 100/200mg/kg/dose", "method": "1. Mouse Ear Herpesvirus Model (Reference, H.J. Field, Antimicrob. Ag. Chemother., 21, 744 (1982))\nThis model is based upon comparisons of viral replication in, and intlammation of, the ears of untreated or treated mice atter infection with herpesvirus.\nThe left pinna of female Balb/c mice were infected intradermally with 10^5 PFU of herpes simplex virus type 1 (strain SC-16) suspended in 2U^gl of Eagle minimum essential medium. The mice were treated orally 3 times daily from the time of infection until day +4 with BVDU at 100mg/kg/dose or a 1:2 mixture of BVDU and probenecid (100/200mg/kg/dose). At selected times after infection groups of three mice were killed and the ear thickness of both the left and right ears measured using a micrometer gauge. The left ears were then removed and placed individually into 3ml of phosphate buffered saline. Samples were homogenised and sonicated. After centrifugation the supernatant was removed and assayed immediately in a plaque assay in Vero cells."}, "[6]": {"tested_on": "herpes simplex virus type 1 (strain SC-16)", "assay": "Hairless mouse cutaneous herpesvirus model (lesion scoring)", "assay_type": "in vivo, adult hairless (HrHr) female mice", "settings": "each x one mouse, BVDU 100mg/kg or BVDU/Probenecid 100/200mg/kg", "method": "When hairless mice are infected with herpesvirus by dermal scaritication, vesicles appear at the site ot inoculation b days later. These rapidly coalesce to form a spreading unilateral lesion involving one hind quarter, leading eventually to ascending paralysis and death. The ettect ot treatments is assessed by a scoring method as lesions develop.\nuroups ot lu adult hairless (HrHr) female mice were anaesthetized using ether and then infected with herpes simplex virus type 1 (strain SC-16) by scarifying an area =1cm^2 at a site parallel with the top of the left hind limb, just below the midline, and introducing a drop ot virus-containing solution to tnis site. single dally doses ot placebo, Bvuu (100mg/kg/dose) or a 1:2 mixture or BVDU and probenecid (100/200mg/kg/dose) were administered orally for seven days, commencing 24 hours after intection. From 4 days atter infection individual mice were examined daily and scored according to the severity ot infection."}, "[7]": {"settings": "mouse, in vivo, 100 mg/kg, single dose, BVDU 100 mg/kg alone or with probenecid 100 or 200 mg/kg, read-out: Concentration (µg/mL) in Serum BVDU"}, "[8]": {"settings": "Day +8, single daily oral doses for seven days"}, "[9]": {"settings": "Day +11, single daily oral doses for seven days"}, "[10]": {"settings": "single dose, probenecid 200 mg/kg alone or 100 or 200 mg/kg with BVDU 100 mg/kg, read-out: Concentration (µg/mL) in Serum Probenecid"}}, "note": "Read-outs that look alike come from different tables or passages of the source.", "data": [{"smiles": "O=c1[nH]cc(/C=C/Br)c(=O)[nH]1", "note": "[BVDU Metabolite]", "values": [{"measurement": "antiviral activity", "setting": "[1]", "value": "no significant antiviral activity"}]}, {"smiles": "O=c1[nH]c(=O)n([C@H]2C[C@H](O)[C@@H](CO)O2)cc1/C=C/Br", "note": "[BVDU, E-5-(2-bromovinyl)-2'-deoxyuridine]", "values": [{"measurement": "concentration at 0.5 h", "setting": "[2]; 30 mins after dosing", "value": "39.8 ± 10.6", "unit": "µg/mL"}, {"measurement": "concentration at 85 min", "setting": "[2]; 85 mins after dosing", "value": "4.7 ± 1.4", "unit": "µg/mL"}, {"measurement": "concentration at 0.5 h", "setting": "[3]; in vivo, Experiment 2, 30 mins after dosing, single dose, BVDU 100 mg/kg alone or with probenecid 100 or 200 mg/kg (dose in brackets in label), read-out: Concentration (µg/mL) in Serum BVDU", "value": 26.1, "unit": "µg/mL"}, {"measurement": "concentration at 0.5 h", "setting": "[3]; mouse, in vivo, 100 mg/kg, Experiment 1, 30 mins after dosing, single 100 mg/kg dose of BVDU, read-out: HPLC Determinations BVDU Conc (µg/mL) in serum", "value": 38, "unit": "µg/mL"}, {"measurement": "concentration at 85 min", "setting": "[3]; mouse, in vivo, 100 mg/kg, Experiment 1, 85 mins after dosing, single 100 mg/kg dose of BVDU, read-out: HPLC Determinations BVDU Conc (µg/mL) in serum", "value": 3.9, "unit": "µg/mL"}, {"measurement": "concentration at 1.25 h", "setting": "[3]; [7]", "value": 13, "unit": "µg/mL"}, {"measurement": "concentration at 2 h", "setting": "[3]; [7]", "value": 3.6, "unit": "µg/mL"}, {"measurement": "detected in the urine", "setting": "[4]", "value": "only BVDU and none of the metabolite was detected in the urine"}, {"measurement": "Virus titre (log10 p.f.u./ear)", "setting": "[5]; Experiment A, day 1 post inoculation", "value": 3.5, "unit": "log10 p.f.u./ear"}, {"measurement": "Virus titre (log10 p.f.u./ear)", "setting": "[5]; Experiment A, day 2 post inoculation", "value": 3.0, "unit": "log10 p.f.u./ear"}, {"measurement": "Virus titre (log10 p.f.u./ear)", "setting": "[5]; Experiment A, day 3 post inoculation", "value": 2.9, "unit": "log10 p.f.u./ear"}, {"measurement": "Virus titre (log10 p.f.u./ear)", "setting": "[5]; Experiment A, day 4 post inoculation", "value": 3.3, "unit": "log10 p.f.u./ear"}, {"measurement": "Virus titre (log10 p.f.u./ear)", "setting": "[5]; Experiment A, day 7 post inoculation", "value": 1.3, "unit": "log10 p.f.u./ear"}, {"measurement": "Virus titre (log10 p.f.u./ear)", "setting": "[5]; Experiment B, day 1 post inoculation", "value": 4.1, "unit": "log10 p.f.u./ear"}, {"measurement": "Virus titre (log10 p.f.u./ear)", "setting": "[5]; Experiment B, day 2 post inoculation", "value": 3.0, "unit": "log10 p.f.u./ear"}, {"measurement": "Virus titre (log10 p.f.u./ear)", "setting": "[5]; Experiment B, day 3 post inoculation", "value": 3.3, "unit": "log10 p.f.u./ear"}, {"measurement": "Virus titre (log10 p.f.u./ear)", "setting": "[5]; Experiment B, day 4 post inoculation", "value": 3.9, "unit": "log10 p.f.u./ear"}, {"measurement": "Virus titre (log10 p.f.u./ear)", "setting": "[5]; Experiment B, day 7 post inoculation", "value": 0, "unit": "log10 p.f.u./ear"}, {"measurement": "Difference in ear thickness between uninfected and infected ears (mm x 10^-2)", "setting": "[5]; day 1 post inoculation", "value": 10.1, "unit": "mm x 10^-2"}, {"measurement": "Difference in ear thickness between uninfected and infected ears (mm x 10^-2)", "setting": "[5]; day 2 post inoculation", "value": 14.2, "unit": "mm x 10^-2"}, {"measurement": "Difference in ear thickness between uninfected and infected ears (mm x 10^-2)", "setting": "[5]; day 3 post inoculation", "value": 13.4, "unit": "mm x 10^-2"}, {"measurement": "Difference in ear thickness between uninfected and infected ears (mm x 10^-2)", "setting": "[5]; day 4 post inoculation", "value": 15.1, "unit": "mm x 10^-2"}, {"measurement": "Difference in ear thickness between uninfected and infected ears (mm x 10^-2)", "setting": "[5]; day 7 post inoculation", "value": 20.7, "unit": "mm x 10^-2"}, {"measurement": "Difference in ear thickness between uninfected and infected ears (mm x 10^-2)", "setting": "[5]; day 8 post inoculation", "value": 20.8, "unit": "mm x 10^-2"}, {"measurement": "Difference in ear thickness between uninfected and infected ears (mm x 10^-2)", "setting": "[5]; day 9 post inoculation", "value": 20.2, "unit": "mm x 10^-2"}, {"measurement": "Difference in ear thickness between uninfected and infected ears (mm x 10^-2)", "setting": "[5]; day 11 post inoculation", "value": 16.1, "unit": "mm x 10^-2"}, {"measurement": "Difference in ear thickness between uninfected and infected ears (mm x 10^-2)", "setting": "[5]; day 12 post inoculation", "value": 14.0, "unit": "mm x 10^-2"}, {"measurement": "Difference in ear thickness between uninfected and infected ears (mm x 10^-2)", "setting": "[5]; day 14 post inoculation", "value": 10.1, "unit": "mm x 10^-2"}, {"measurement": "ear thickness", "setting": "[5]; oral 3 times daily until day +4, BVDU 100mg/kg/dose or 1:2 mixture 100/200mg/kg/dose", "value": "no ettect"}, {"measurement": "Mice with lesion score 2 (Scab at infection site)", "setting": "[6]; Day +4, single daily oral doses for seven days from 24 hours after infection", "value": "xxxxxxx"}, {"measurement": "Mice with lesion score 1 (1° Vesicles)", "setting": "[6]; Day +4, single daily oral doses for seven days", "value": "xxx"}, {"measurement": "Mice with lesion score 5 (Severe spreading)", "setting": "[6]; [8]", "value": "xxxxxxx"}, {"measurement": "Mice with lesion score 7 (Death)", "setting": "[6]; [8]", "value": "xx"}, {"measurement": "Mice with lesion score 4 (Spreading)", "setting": "[6]; [9]", "value": "xx"}, {"measurement": "Mice with lesion score 5 (Severe spreading)", "setting": "[6]; [9]", "value": "xxx"}, {"measurement": "Mice with lesion score 7 (Death)", "setting": "[6]; [9]", "value": "xxxx"}]}, {"smiles": "CCCN(CCC)S(=O)(=O)c1ccc(C(=O)O)cc1", "note": "[Probenecid]", "values": [{"measurement": "concentration at 0.5 h", "setting": "[3]; Experiment 2, 30 mins after dosing, single dose, probenecid 200 mg/kg alone or 100 or 200 mg/kg with BVDU 100 mg/kg, read-out: Concentration (µg/mL) in Serum Probenecid", "value": 3.8, "unit": "µg/mL"}, {"measurement": "concentration at 1.25 h", "setting": "[3]; [10]", "value": 3.2, "unit": "µg/mL"}, {"measurement": "concentration at 2 h", "setting": "[3]; [10]", "value": 2.3, "unit": "µg/mL"}]}]}
